Data as given in patent US9000010B2, “Alkyl-heterocycle carbamate derivatives, their preparation and their therapeutic application” (Sanofi, priority 2010, dated 2015).

Key:
[1] = biological target: T1, FAAH (Fatty Acid Amide Hydrolase) (Mus musculus, UniProt O08914); experiment: Radioenzymatic test of FAAH inhibition: hydrolysis of anandamide [ethanolamine 1-3H] by mouse brain membrane homogenates; assay type: biochemical; conditions: mouse brain membrane homogenate; preincubation 20 min at 25° C.; anandamide 10 μM; read-out: CI50 (concentration which inhibits the control enzymatic activity of FAAH by 50%)
T1 construct: The membrane homogenates are prepared at the time of use by homogenization of the tissues; from tissue; host or cells: mouse brain (minus the cerebellum), membrane homogenate
T1 sequence (O08914 1-579): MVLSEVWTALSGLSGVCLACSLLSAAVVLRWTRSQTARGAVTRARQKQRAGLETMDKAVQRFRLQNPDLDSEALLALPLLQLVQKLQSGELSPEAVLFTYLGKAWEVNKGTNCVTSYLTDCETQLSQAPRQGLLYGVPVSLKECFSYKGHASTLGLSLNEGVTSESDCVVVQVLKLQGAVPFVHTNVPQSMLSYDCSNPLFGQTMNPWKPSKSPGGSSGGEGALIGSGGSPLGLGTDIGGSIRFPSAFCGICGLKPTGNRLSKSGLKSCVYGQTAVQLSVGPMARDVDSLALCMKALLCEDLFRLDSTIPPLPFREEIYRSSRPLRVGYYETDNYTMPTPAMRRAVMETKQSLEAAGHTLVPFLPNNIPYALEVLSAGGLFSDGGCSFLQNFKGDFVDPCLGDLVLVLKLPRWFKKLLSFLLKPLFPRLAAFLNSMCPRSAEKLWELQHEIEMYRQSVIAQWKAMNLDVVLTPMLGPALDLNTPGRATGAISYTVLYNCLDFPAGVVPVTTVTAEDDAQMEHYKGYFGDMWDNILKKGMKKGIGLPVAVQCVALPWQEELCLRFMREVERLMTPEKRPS
Description: The compounds of the invention form the subject of pharmacological trials which make it possible to determine their inhibitory effect on the enzyme FAAH (Fatty Acid Amide Hydrolase).
Thus, mouse brains (minus the cerebellum) are removed and stored at −80° C. The membrane homogenates are prepared at the time of use by homogenization of the tissues using a Precellys® device in the reaction buffer (Tris-HCl 10 mM pH=8, NaCl 150 mM and ethylenediaminetetraacetic acid (EDTA) 1 mM). The enzymatic reaction is carried out in 96-well MultiScreen filtration plates in a final volume of 70 μl. Reaction buffer supplemented with bovine serum albumin free from fatty acids (BSA, 1 mg/ml) is used for the enzymatic reaction, the dilution of the compounds and the dilution of the anandamide [ethanolamine 1-^3H]. Reaction buffer comprising the BSA (43 μl/well), the diluted test compounds at different concentrations (7 μl/well comprising 1% of DMSO) and the membrane preparation (10 μl/well, i.e. 200 μg of tissue per trial) are successively added to the wells. After preincubating the compounds with the enzyme at 25° C. for 20 minutes, the reaction is initiated by the addition of anandamide [ethanolamine 1-^3H] (specific activity of 15-20 Ci/mmol) diluted with cold anandamide (10 μl/well, final concentration of 10 μM, 0.01 μCi, per trial). After incubating at 25° C. for 20 minutes, the enzymatic reaction is halted by addition of a […] active charcoal solution prepared in a 1.5M NaCl and 0.5M HCl buffer (50 μl/well). The mixture is stirred for 10 minutes and then the aqueous phase comprising the [1-^3H]ethanolamine is recovered by filtration under vacuum and counted by liquid scintillation.

Row | SMILES | IC50 [1] [nM] | melting point [°C]
1 | O=C(OCc1cscn1)N1CCC(COc2cnc3ccccc3c2)C1 (racemic) [No. 26, Thiazol-4-ylmethyl (+/−)-3-(quinolin-3-yloxymethyl)-pyrrolidine-1-carboxylate] | 86 | 83 to 85
2 | O=C(OCc1nccs1)N1CCC(CCOc2ccc(C3CCCC3)cc2)CC1 [No. 38, Thiazol-2-ylmethyl 4-[2-(4-cyclopentylphenoxy)-ethyl]piperidine-1-carboxylate] | 14 | 
3 | O=C(OCc1nccs1)N1CCC(CCOc2ccccc2-c2nc3ccccc3o2)CC1 [No. 39, Thiazol-2-ylmethyl 4-[2-(2-{benzoxazol-2-yl}-phenoxy)ethyl]piperidine-1-carboxylate] | 13 | 
4 | O=C(OCc1nccs1)N1CCC(CCOc2ccc(Cc3ccccc3)cc2)CC1 [No. 49, Thiazol-2-ylmethyl 4-[2-(4-benzylphenoxy)ethyl]-piperidine-1-carboxylate] | 19 | 
5 | CCCCOc1cccc(OCCC2CCN(C(=O)OCc3nccs3)CC2)c1 [No. 60, Thiazol-2-ylmethyl 4-[2-(3-butoxyphenoxy)ethyl]-piperidine-1-carboxylate] | 95 | 
6 | CCCCOc1cccc(OCCC2CCN(C(=O)OCc3cscn3)CC2)c1 [No. 90, Thiazol-4-ylmethyl 4-[2-(3-butoxyphenoxy)ethyl]-piperidine-1-carboxylate] | 92 | 

Results, then the compound that gave them:

Row | IC50 [1] [nM] | melting point [°C] | SMILES
7 | 252 | 100 to 102 | O=C(OCc1nccs1)N1CCC(COc2ccc3c(Cl)cccc3c2)C1 (racemic) [No. 196, Thiazol-2-ylmethyl (+/−)-3-(5-chloronaphth-2-yloxymethyl)pyrrolidine-1-carboxylate]
8 | 122 | 138 to 140 | NC(=O)c1cc(COC(=O)N2CC[C@@H](COc3ccc4ccccc4c3)C2)on1 (single isomer, unassigned) [No. 200]
9 | 8 | 139 to 141 | NC(=O)c1cc(COC(=O)N2CC[C@H](COc3ccc4ccccc4c3)C2)on1 (single isomer, unassigned) [No. 202]
10 | 350 | 112 to 115 | NC(=O)c1cc(COC(=O)N2CCC(CCOc3ccc(OC(F)(F)F)cc3)CC2)on1 [No. 199, 3-Carbamoylisoxazol-5-ylmethyl 4-[2-(4-{trifluoromethoxy}phenoxy)ethyl]piperidine-1-carboxylate]
